Data taken from ChEMBL document CHEMBL1649379, “Synthesis of a novel ester of hydroxytyrosol and α-lipoic acid exhibiting an antiproliferative effect on human colon cancer HT-29 cells” (2011).

Key:
Format in all cases: functional
HT-29 [1] = assay: Induction of cell cycle arrest in human HT-29 cells assessed as accumulation at G2/M phase at 100 uM after 24 hrs by flow cytometry (reference value: 17.6+/-1%)
HT-29 [2] = assay: Induction of cell cycle arrest in human HT-29 cells assessed as accumulation at S phase at 150 uM after 24 hrs by flow cytometry (reference value: 21+/-0.9%)
HT-29 [3] = assay: Growth inhibition of human HT-29 cells at 150 uM after 48 hrs by BrdU-ELISA assay; settings: HT-29, 48 h, read-out: GI
HT-29 [4] = assay: Induction of cell cycle arrest in human HT-29 cells assessed as accumulation at S phase at 100 uM after 24 hrs by flow cytometry (reference value: 21+/-0.9%)
HT-29 [5] = assay: Induction of cell cycle arrest in human HT-29 cells assessed as accumulation at G2/M phase at 150 uM after 24 hrs by flow cytometry (reference value: 17.6+/-1%)
HT-29 [6] = assay: Growth inhibition of human HT-29 cells at 100 uM after 48 hrs by BrdU-ELISA assay; settings: HT-29, 48 h, read-out: GI
HT-29 [7] = assay: Growth inhibition of human HT-29 cells at 150 uM after 24 hrs by BrdU-ELISA assay; settings: HT-29, 24 h, read-out: GI
HT-29 [8] = assay: Growth inhibition of human HT-29 cells at 300 uM after 24 hrs by BrdU-ELISA assay; settings: HT-29, 24 h, read-out: GI
HT-29 [9] = assay: Growth inhibition of human HT-29 cells at 300 uM after 48 hrs by BrdU-ELISA assay; settings: HT-29, 48 h, read-out: GI
HT-29 [10] = assay: Induction of cell cycle arrest in human HT-29 cells assessed as accumulation at G2/M phase at 300 uM after 24 hrs by flow cytometry (reference value: 17.6+/-1%)
HT-29 [11] = assay: Induction of cell cycle arrest in human HT-29 cells assessed as accumulation at S phase at 300 uM after 24 hrs by flow cytometry (reference value: 21+/-0.9%)
HT-29 [12] = assay: Induction of cell cycle arrest in human HT-29 cells assessed as accumulation at G0/G1 phase at 150 uM after 24 hrs by flow cytometry (reference value: 61.4+/-1.1%)
HT-29 [13] = assay: Induction of cell cycle arrest in human HT-29 cells assessed as accumulation at G0/G1 phase at 300 uM after 24 hrs by flow cytometry (reference value: 61.4+/-1.1%)
HT-29 [14] = assay: Growth inhibition of human HT-29 cells at 100 uM after 24 hrs by BrdU-ELISA assay; settings: HT-29, 24 h, read-out: GI
HT-29 [15] = assay: Induction of cell cycle arrest in human HT-29 cells assessed as accumulation at G0/G1 phase at 100 uM after 24 hrs by flow cytometry (reference value: 61.4+/-1.1%)

Row | SMILES | Activity (HT-29 [1]) [%] | Activity (HT-29 [2]) [%] | inhibition of growth at 150 µM (HT-29 [3]) [%] | Activity (HT-29 [4]) [%] | Activity (HT-29 [5]) [%] | inhibition of growth at 100 µM (HT-29 [6]) [%] | inhibition of growth at 150 µM (HT-29 [7]) [%] | inhibition of growth at 300 µM (HT-29 [8]) [%] | inhibition of growth at 300 µM (HT-29 [9]) [%] | Activity (HT-29 [10]) [%] | Activity (HT-29 [11]) [%] | Activity (HT-29 [12]) [%] | Activity (HT-29 [13]) [%] | inhibition of growth at 100 µM (HT-29 [14]) [%] | Activity (HT-29 [15]) [%]
1 | OCCc1ccc(O)c(O)c1 [HYDROXYTYROSOL] | 35 | 20.3 | 29.3 | 22.5 | 36.7 | 17.3 | 37.5 | 64.2 | 53.2 | 43.5 | 20.1 | 40.3 | 34.4 | 20.7 | 40.5
2 | O=C(CCCCC1CCSS1)OCCc1ccc(O)c(O)c1 (stereo not given) | 49.7 | 18.1 | 70.6 | 17.7 | 50.5 | 45.6 | 69.6 | 83.9 | 83.6 | 56.8 | 14 | 29.3 | 28.2 | 33.9 | 31.3
3 | O=C(O)CCCCC1CCSS1 (stereo not drawn) [LIPOIC ACID, ALPHA] | 36.9 | 20.1 | 18.4 | 19.2 | 32.1 | 6.5 | 25.5 | 24 | 19.5 | 40.3 | 19.3 | 45.6 | 37.5 | 17.8 | 43.5
